Values quoted from earlier work, collected in patent US20250017894A1, “Formulation for Nasal Delivery of Cannabinoids” (priority 2019, published 2025).

C=C(C)[C@@H]1CCC(C)=C[C@H]1c1c(O)cc(CCCCC)cc1O [CBD, Cannabidiol]
bioavailability, inhalation using vaporized CBD (inhalation of vaporized CBD): 26-36%
bioavailability for intranasal administration (intranasal administration): 34-46%
oral bioavailability (oral administration): 6-15%
bioavailability, sublingual administration (sublingual administration): 20-35%
